Measured values: PubChem BioAssay AID743359 (Molecular Libraries Program, Specialized Chemistry Center, …, 2014)
pIC50: −log10 of the molar value. Active and inactive are the calls of the source.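 The calls were made as follows: active = compounds whose half-maximal inhibitory concentration IC50 is 20 µM or lower; inactive = the rest.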

The compounds below were run on isolated mouse liver mitochondria, Ca2+ swelling, A540 20 min (assay: mitochondrial swelling inhibition, absorbance readout – dry powder samples, uHTS hits, dose response (AID 743359)).

| IC50 | pIC50 | SMILES |
| --- | --- | --- |
| > 50 µM (inactive) |  | CCN(C(=O)c1cc(Cl)ccc1OC)c1ccccc1 |
| > 50 µM (inactive) |  | CN1CCN(c2ccc(NS(=O)(=O)c3cccc(Cl)c3)cc2)CC1 |
| > 50 µM (inactive) |  | CCc1ccccc1NC(=O)c1cc(-c2ccccc2)on1 |
| > 50 µM (inactive) |  | O=S(=O)(Nc1ccc(CN2CCCCC2)cc1)c1ccc(F)c(Cl)c1 |
|  | 5.22 | COc1ccc(Cl)cc1C(=O)Nc1ccc(CCN2CCCCC2)cc1 |
| 18.2 µM (inactive) |  | COc1ccc(Cl)c(C(=O)Nc2ccc(CN3CCN(C(=O)OC(C)(C)C)CC3)cc2)c1 |
| 40 µM (inactive) |  | COc1cccc(-c2cc(C(=O)Nc3cc(Cl)ccc3C)no2)c1 |
| > 50 µM (inactive) |  | Cc1cc(NC(=O)c2ccc(-n3cnnc3)cc2)no1 |
| > 50 µM (inactive) |  | Cc1cc(NC(=O)c2cc(-c3ccc(F)cc3)on2)no1 |
| > 50 µM (inactive) |  | O=S(=O)(Nc1ccc(CCN2CCCCC2)cc1)c1ccc(F)c(Cl)c1 |
| 24 µM (inactive) |  | CC(C)c1cc(C(=O)Nc2ccc(F)cc2F)no1 |
| > 50 µM (inactive) |  | CN1CCN(Cc2ccc(NS(=O)(=O)c3ccc(F)c(Cl)c3)cc2)CC1 |
| > 50 µM (inactive) |  | CCN(CC)c1ccc(NC(=O)c2ccc(OC)c(Cl)c2)cc1 |
| > 50 µM (inactive) |  | COc1ccc(Cl)c(C(=O)Nc2ccc(CCN3CCCCC3)cc2)c1 |
| > 50 µM (inactive) |  | COc1ccc(Cl)cc1C(=O)Nc1ccc(N2CCOCC2)cc1 |
| > 50 µM (inactive) |  | COc1ccc(Cl)c(C(=O)Nc2ccc(CCN3CCN(C)CC3)cc2)c1 |
|  | 4.87 | COc1ccc(Cl)cc1C(=O)Nc1ccc(CN2CCN(C)CC2)cc1 |
| > 50 µM (inactive) |  | COc1ccc(Cl)cc1C(=O)Nc1ccc(N2CCCCC2)cc1 |
|  | 6.37 | O=C(Nc1ccc(Cl)cc1)c1cc(-c2cccc(O)c2)on1 |
|  | 5.21 | COc1ccc(Cl)cc1C(=O)Nc1ccc(N2CCN(C)CC2)cc1 |
| > 50 µM (inactive) |  | CN1CCN(CCc2ccc(NS(=O)(=O)c3cccc(Cl)c3)cc2)CC1 |
|  | 5.34 | O=C(Nc1cccc(F)c1)c1cc(-c2cccc(O)c2)on1 |
| > 50 µM (inactive) |  | COc1ccc(Cl)cc1S(=O)(=O)Nc1ccc(N2CCN(C)CC2)cc1 |
|  | > 6.41 | Cc1ccc(Cl)cc1NC(=O)c1cc(-c2cccc(O)c2)on1 |
|  | 5.42 | CN1CCN(CCc2ccc(NC(=O)c3cccc(OCc4ccccc4)c3)cc2)CC1 |

| IC50 | pIC50 | SMILES |
| --- | --- | --- |
| > 50 µM (inactive) |  | O=S(=O)(Nc1ccc(CCN2CCCCC2)cc1)c1cccc(Cl)c1 |
| > 50 µM (inactive) |  | COc1ccc(Cl)cc1C(=O)Nc1cccc(CN2CCN(C(=O)OC(C)(C)C)CC2)c1 |
| 25.1 µM (inactive) |  | O=S(=O)(Nc1ccc(CCN2CCCCC2)cc1)c1cc(Cl)cc(Cl)c1 |
| > 50 µM (inactive) |  | O=C(Nc1cccc(Cl)c1)c1cc(-c2ccc(Cl)cc2)on1 |
| > 50 µM (inactive) |  | COc1ccc(Cl)cc1S(=O)(=O)Nc1ccc(CCN2CCN(C)CC2)cc1 |
| > 50 µM (inactive) |  | COc1ccc(Cl)c(C(=O)Nc2ccc(CCN3CCN(C(=O)OC(C)(C)C)CC3)cc2)c1 |
|  | 5.72 | CN1CCN(c2ccc(NC(=O)c3cccc(OCc4ccccc4)c3)cc2)CC1 |
|  | > 6.41 | COc1ccc(NC(=O)c2cc(-c3cccc(O)c3)on2)cc1Cl |
| 6.35 µM (inactive) |  | COc1ccc(Cl)cc1C(=O)Nc1ccccc1 |
|  | > 6.41 | O=C(Nc1cc(Cl)ccc1F)c1cc(-c2cccc(O)c2)on1 |
| > 50 µM (inactive) |  | O=C(Nc1ccccc1OCc1ccccc1)c1cc(-c2cccc(O)c2)on1 |
| > 50 µM (inactive) |  | COc1ccc(Cl)c(C(=O)Nc2ccc(CN3CCN(C)CC3)cc2)c1 |
| > 50 µM (inactive) |  | Cc1ccc(-c2cc(C(=O)Nc3cccc(Cl)c3)no2)cc1 |
|  | 5.65 | COc1ccc(Cl)cc1C(=O)Nc1ccc(CN2CCNCC2)cc1 |
|  | > 6.41 | O=C(Nc1cc(Cl)cc(Cl)c1)c1cc(-c2cccc(O)c2)on1 |
|  | > 6.41 | O=C(Nc1ccc(CN2CCCCC2)cc1)c1cc(Cl)cc(OCc2ccccc2)c1 |
| > 50 µM (inactive) |  | COc1ccccc1C(=O)Nc1ccc(C(=O)N2CCCCC2)cc1 |
|  | 6.02 | O=C(Nc1ccc(CN2CCCCC2)cc1)c1cccc(OCc2ccccc2)c1 |
|  | > 6.41 | Cc1c(Cl)cccc1NC(=O)c1cc(-c2cccc(O)c2)on1 |
|  | 5.76 | COc1ccc(Cl)cc1C(=O)Nc1ccc(CN2CCCCC2)cc1 |
| 46.5 µM (inactive) |  | COc1ccccc1C(=O)Nc1ccc(CN2CCCCC2)cc1 |
|  | 4.86 | CC1(C)CCN(CCCC(=O)c2ccc(Br)cc2)CC1 |
| > 50 µM (inactive) |  | CN1CCN(c2ccc(NC(=O)c3ccc(OCc4ccccc4)cc3)cc2)CC1 |
|  | 4.99 | CC(C)C1CCN(CCCC(=O)c2ccc(Br)cc2)CC1 |
| > 50 µM (inactive) |  | CN1CCN(Cc2ccc(NS(=O)(=O)c3cccc(Cl)c3)cc2)CC1 |

| IC50 | pIC50 | SMILES |
| --- | --- | --- |
| > 50 µM (inactive) |  | O=S(=O)(Nc1ccc(CN2CCCCC2)cc1)c1cccc(Cl)c1 |
|  | 4.86 | COc1ccc(Cl)cc1C(=O)Nc1ccc(CCN2CCOCC2)cc1 |
| > 50 µM (inactive) |  | COc1ccc(Cl)cc1S(=O)(=O)Nc1ccc(CN2CCN(C)CC2)cc1 |
|  | 5.32 | COc1ccc(Cl)cc1C(=O)Nc1cccc(CN2CCNCC2)c1 |
| 47.8 µM (inactive) |  | CN1CCN(CCc2ccc(NS(=O)(=O)c3cc(Cl)cc(Cl)c3)cc2)CC1 |
|  | > 6.41 | O=C(Nc1cccc(Cl)c1)c1cc(-c2cccc(O)c2)on1 |
|  | 6.08 | Cc1ccc(NC(=O)c2cc(-c3cccc(O)c3)on2)cc1Cl |
| > 50 µM (inactive) |  | O=C(Nc1ccc(CN2CCCCC2)cc1)c1cc(Cl)ccc1O |
|  | 6.16 | CN1CCN(c2ccc(Cl)cc2NC(=O)/C=C/c2cccc(F)c2)CC1 |
| > 50 µM (inactive) |  | COc1ccc(NC(=O)c2cc(-c3ccc(Cl)cc3)on2)cc1Cl |
| 40.9 µM (inactive) |  | CC1CCN(CCCC(=O)c2ccc(Br)cc2)CC1 |
|  | > 6.41 | O=C(Nc1ccc(CN2CCCCC2)cc1)c1ccc(Cl)c(OCc2ccccc2)c1 |
|  | 5.80 | O=C(Nc1cc(Cl)ccc1Cl)c1cc(-c2cccc(O)c2)on1 |
| > 50 µM (inactive) |  | COc1ccc(Cl)c(C(=O)Nc2cccc(CN3CCN(C(=O)OC(C)(C)C)CC3)c2)c1 |
|  | 4.97 | COc1ccc(Cl)cc1C(=O)Nc1ccc(CCN2CCN(C)CC2)cc1 |
| 38 µM (inactive) |  | COc1ccc(C(=O)CCN2CCCC(C)C2)cc1 (centres undefined) |
| > 50 µM (inactive) |  | O=S(=O)(Nc1ccc(CN2CCCCC2)cc1)c1cc(Cl)cc(Cl)c1 |
| 44.9 µM (inactive) |  | CN1CCN(c2ccc(NS(=O)(=O)c3cc(Cl)cc(Cl)c3)cc2)CC1 |
|  | 5.28 | COc1ccc(Cl)cc1C(=O)Nc1ccc(CCN2CCNCC2)cc1 |
| 23.3 µM (inactive) |  | CN1CCN(Cc2ccc(NS(=O)(=O)c3cc(Cl)cc(Cl)c3)cc2)CC1 |
| > 50 µM (inactive) |  | CN1CCN(CCc2ccc(NS(=O)(=O)c3ccc(F)c(Cl)c3)cc2)CC1 |
| > 50 µM (inactive) |  | O=C(Nc1ccccc1C(F)(F)F)c1cc(-c2ccccc2)on1 |
| > 50 µM (inactive) |  | COc1ccc(Cl)cc1S(=O)(=O)Nc1ccc(CCN2CCCCC2)cc1 |
|  | 5.64 | CN1CCN(c2ccccc2NC(=O)c2ccc(OCc3ccccc3)cc2)CC1 |
|  | 4.99 | COc1ccc(Cl)cc1C(=O)Nc1ccc(N(C)C)cc1 |

| IC50 | pIC50 | SMILES |
| --- | --- | --- |
|  | 4.70 | COc1ccc(Cl)cc1C(=O)Nc1ccc(CCN2CCN(C(=O)OC(C)(C)C)CC2)cc1 |
| > 50 µM (inactive) |  | CN1CCN(c2ccc(NS(=O)(=O)c3ccc(F)c(Cl)c3)cc2)CC1 |
|  | 4.82 | O=C(Nc1ccc(CN2CCCCC2)cc1)c1cccc(Cl)c1 |
| > 50 µM (inactive) |  | O=C(Nc1ccc(N2CCCCC2)cc1)c1cccc(OCc2ccccc2)c1 |
| > 50 µM (inactive) |  | COc1ccc(Cl)c(C(=O)Nc2ccc(CCN3CCOCC3)cc2)c1 |
| > 50 µM (inactive) |  | COc1ccc(Cl)c(C(=O)Nc2ccc(CN3CCOCC3)cc2)c1 |
|  | 5.20 | O=C(Nc1ccc(Br)cc1)c1cc(C2CC2)on1 |
|  | > 6.41 | COc1ccc(/C=C/C(=O)Nc2cccc(Cl)c2)cc1O |
| > 50 µM (inactive) |  | COc1ccc(Cl)cc1S(=O)(=O)Nc1ccc(CN2CCCCC2)cc1 |
| > 50 µM (inactive) |  | O=C(Nc1ccc(F)cc1F)c1cc(-c2ccccc2)on1 |
| > 50 µM (inactive) |  | C[C@@H]1CCC[C@H](C)N1CCCC(=O)c1ccc(Br)cc1 |
| 27.6 µM (inactive) |  | COc1c(Cl)cccc1NC(=O)c1cc(-c2cccc(O)c2)on1 |
|  | 5.61 | O=C(Nc1ccc(CN2CCCCC2)cc1)c1cc(OCc2ccccc2)ccc1Cl |
| 47.2 µM (inactive) |  | O=C(Nc1cccc(Cl)c1)c1cc(-c2ccccc2)on1 |
|  | 4.98 | O=C(Nc1cccc(Cl)c1Cl)c1cc(-c2cccc(O)c2)on1 |
| > 50 µM (inactive) |  | O=C(Nc1ccc(OCc2ccccc2)c(Cl)c1)c1cc(-c2cccc(O)c2)on1 |
|  | 4.82 | COc1ccc(Cl)cc1C(=O)Nc1ccc(CN2CCOCC2)cc1 |
|  | 5.64 | O=C(Nc1ccc(CCN2CCCCC2)cc1)c1cccc(OCc2ccccc2)c1 |
|  | 5.48 | CN1CCN(Cc2ccc(NC(=O)c3cccc(OCc4ccccc4)c3)cc2)CC1 |
| > 50 µM (inactive) |  | O=C(Nc1ccc(Cl)cc1)c1cc(-c2ccccc2)on1 |
|  | 5.30 | CCCc1cc(C(=O)Nc2c(F)cc(F)cc2Br)no1 |
|  | 4.83 | COc1ccc(Cl)cc1C(=O)Nc1ccc(CN2CCN(C(=O)OC(C)(C)C)CC2)cc1 |
| > 50 µM (inactive) |  | CCCc1cc(C(=O)Nc2ccc(Br)cc2)no1 |
| > 50 µM (inactive) |  | COc1ccc(NC(=O)c2cc(Cl)cc(Cl)c2OC)cc1 |
